Experimental data reported in US7745495B2, “Pyridine ketones with herbicidal effect” (Syngenta Crop Protection, Inc., priority 2004, dated 2010).

Experiments:
Assay type in all cases: in vivo
Brachiaria = test: Pre-emergent herbicidal activity; details: rating 10=total damage, 0=no action
Description: (§1) Monocotyledonous and dicotyledonous test plants are sown in standard soil in plastic pots. […] The test plants are then grown in a greenhouse under optimum conditions. After a test duration of 3 weeks, the test is evaluated in accordance with a scale of ten ratings (10=total damage, 0=no action). Ratings of from 10 to 7 (especially from 10 to 8) indicate good to very good herbicidal action.
(§2) In the following Table B3, the pre-emergent herbicidal activity of compound H-14 according to the invention is compared with 4 compounds according to the prior art. All compounds are structurally identical except for the nature of the alkylene linker attached to the pyridine ring.

Digitaria [1] = test: Pre-emergence herbicidal action; details: rating 10=total damage, 0=no action; for Pre-emergence herbicidal action: Digitaria: 250 g/ha, after 3 weeks
Description: as §1

Amaranthus = test: Pre-emergence herbicidal action; details: rating 10=total damage, 0=no action; for Pre-emergence herbicidal action: Amaranthus: 250 g/ha, after 3 weeks
Description: as §1

Abutilon [2] = test: Pre-emergence herbicidal action; details: rating 10=total damage, 0=no action; for Pre-emergence herbicidal action: Abutilon: 250 g/ha, after 3 weeks
Description: as §1

Echinochloa = test: Pre-emergence herbicidal action; details: rating 10=total damage, 0=no action; for Pre-emergence herbicidal action: Echinochloa: 250 g/ha, after 3 weeks
Description: as §1

Scirpus = test: Pre-emergent herbicidal activity; details: Table B5, rating 10=total damage, 0=no action
Description: as §1
In the following Table B5, the pre-emergent herbicidal activity of compound H-9 according to the invention is compared with compound E according to the prior art. Both compounds are structurally identical except for the length of the alkylene linker attached to the pyridine ring.

Corn = test: Pre-emergent herbicidal activity on crop plant; details: crop plant, rating 10=total damage, 0=no action; for Pre-emergent Herbicidal Activity: Mais: Table B5
Description: as §1, §2

Soya = test: Pre-emergent herbicidal activity on crop plant; details: crop plant, rating 10=total damage, 0=no action; for Pre-emergent Herbicidal Activity: Soja: Table B5
Description: as §1, §2

Panicum [3] = test: Pre-emergence herbicidal action; details: rating 10=total damage, 0=no action; for Pre-emergent Herbicidal Activity: Panicum: Table B4; for Pre-emergence herbicidal action: Panicum: 250 g/ha, after 3 weeks
Description: as §1

Xanthium = test: Pre-emergent herbicidal activity; details: Table B4, rating 10=total damage, 0=no action
Description: as §1
In the following Table B4, the pre-emergent herbicidal activity of compound H-3 according to the invention is compared with compound D according to the prior art. Both compounds are structurally identical except for the length of the alkylene linker attached to the pyridine ring.

Digitaria [4] = test: Post-emergence herbicidal action; details: 250 g/ha; 4- to 6-leaf stage; after about 18 days; rating 10=total damage, 0=no action
Description: (§3) In a greenhouse, monocotyledonous and dicotyledonous test plants are grown in standard soil in plastic pots and at the 4- to 6-leaf stage are sprayed with an aqueous suspension of the test compounds of formula I prepared from a 25% wettable powder (Example F3, b) according to WO 97/34485) or with an emulsion of the test compounds of formula I prepared from a 25% emulsifiable concentrate (Example F1, c) according to WO 97/34485), in a concentration corresponding to 125 g or 250 g of active ingredient/ha (500 liter of water/ha). The test plants are then grown on in a greenhouse under optimum conditions. After a test duration of about 18 days, the test is evaluated in accordance with a scale of ten ratings (10=total damage, 0=no action). Ratings of from 10 to 7 (especially from 10 to 8) indicate good to very good herbicidal action.

Stellaria [5] = test: Post-emergence herbicidal action; details: 250 g/ha; 4- to 6-leaf stage; after about 18 days; rating 10=total damage, 0=no action
Description: as §3

Setaria [6] = test: Post-emergence herbicidal action; details: 250 g/ha; 4- to 6-leaf stage; after about 18 days; rating 10=total damage, 0=no action
Description: as §3

Abutilon [7] = test: Post-emergence herbicidal action; details: 250 g/ha; 4- to 6-leaf stage; after about 18 days; rating 10=total damage, 0=no action
Description: as §3

Sinapis = test: Post-emergence herbicidal action; details: 250 g/ha; 4- to 6-leaf stage; after about 18 days; rating 10=total damage, 0=no action
Description: as §3

Panicum [8] = test: Post-emergence herbicidal action; details: 250 g/ha; 4- to 6-leaf stage; after about 18 days; rating 10=total damage, 0=no action
Description: as §3

Chenopodium [9] = test: Post-emergence herbicidal action; details: 250 g/ha; 4- to 6-leaf stage; after about 18 days; rating 10=total damage, 0=no action
Description: as §3

Ipomea = test: Post-emergence herbicidal action; details: 250 g/ha; 4- to 6-leaf stage; after about 18 days; rating 10=total damage, 0=no action
Description: as §3

Setaria [10] = test: Pre-emergent herbicidal activity; details: Table B3, rating 10=total damage, 0=no action
Description: as §1, §2

Stellaria [11] = test: Pre-emergence herbicidal action; details: 250 g/ha; after 3 weeks; rating 10=total damage, 0=no action
Description: (§4) Monocotyledonous and dicotyledonous test plants are sown in standard soil in plastic pots. Immediately after sowing, the test compounds, in the form of an aqueous suspension (prepared from a 25% wettable powder (Example F3, b) according to WO 97/34485) or in the form of an emulsion (prepared from a 25% emulsifiable concentrate (Example F1, c)), are applied by spraying a concentration corresponding to 125 g or 250 g of active ingredient/ha (500 liter of water/ha). The test plants are then grown in a greenhouse under optimum conditions. After a test duration of 3 weeks, the test is evaluated in accordance with a scale of ten ratings (10=total damage, 0=no action). Ratings of from 10 to 7 (especially from 10 to 8) indicate good to very good herbicidal action.

Chenopodium [12] = test: Pre-emergence herbicidal action; details: 250 g/ha; after 3 weeks; rating 10=total damage, 0=no action
Description: as §4

## COCc1nc(C(F)(F)Cl)ccc1C(=O)C1C(=O)C2CCC(C2)C1=O (stereo not shown) [E, reference compound]
Brachiaria; Table B5, 30 g/ha
  Pre-emergent Herbicidal Activity: Brachiaria: 0
Brachiaria; Table B5, 60 g/ha
  Pre-emergent Herbicidal Activity: Brachiaria: 0
Digitaria [1]; Table B5, 30 g/ha
  Pre-emergent Herbicidal Activity: Digitaria: 6
Digitaria [1]; Table B5, 60 g/ha
  Pre-emergent Herbicidal Activity: Digitaria: 6
Amaranthus; Table B5, 30 g/ha
  Pre-emergent Herbicidal Activity: Amaranthus: 5
Amaranthus; Table B5, 60 g/ha
  Pre-emergent Herbicidal Activity: Amaranthus: 7
Abutilon [2]; Table B5, 30 g/ha
  Pre-emergent Herbicidal Activity: Abutilon: 0
Abutilon [2]; Table B5, 60 g/ha
  Pre-emergent Herbicidal Activity: Abutilon: 0
Echinochloa; Table B5, 30 g/ha
  Pre-emergent Herbicidal Activity: Echinochloa: 8
Echinochloa; Table B5, 60 g/ha
  Pre-emergent Herbicidal Activity: Echinochloa: 9
Scirpus; 30 g/ha
  Pre-emergent Herbicidal Activity: Scirpus: 9
Scirpus; 60 g/ha
  Pre-emergent Herbicidal Activity: Scirpus: 9
Corn; 30 g/ha
  Pre-emergent Herbicidal Activity: Mais: 0
Corn; 60 g/ha
  Pre-emergent Herbicidal Activity: Mais: 0
Soya; 30 g/ha
  Pre-emergent Herbicidal Activity: Soja: 2
Soya; 60 g/ha
  Pre-emergent Herbicidal Activity: Soja: 4

## COCc1nc(C(F)F)ccc1C(=O)C1C(=O)C2CCC(C2)C1=O (stereo not shown) [D, reference compound]
Digitaria [1]; Table B4, 30 g/ha
  Pre-emergent Herbicidal Activity: Digitaria: 7
Digitaria [1]; Table B4, 60 g/ha
  Pre-emergent Herbicidal Activity: Digitaria: 9
Amaranthus; Table B4, 30 g/ha
  Pre-emergent Herbicidal Activity: Amaranthus: 7
Amaranthus; Table B4, 60 g/ha
  Pre-emergent Herbicidal Activity: Amaranthus: 7
Abutilon [2]; Table B4, 30 g/ha
  Pre-emergent Herbicidal Activity: Abutilon: 6
Abutilon [2]; Table B4, 60 g/ha
  Pre-emergent Herbicidal Activity: Abutilon: 9
Panicum [3]; 30 g/ha
  Pre-emergent Herbicidal Activity: Panicum: 8
Panicum [3]; 60 g/ha
  Pre-emergent Herbicidal Activity: Panicum: 9
Echinochloa; Table B4, 30 g/ha
  Pre-emergent Herbicidal Activity: Echinochloa: 5
Echinochloa; Table B4, 60 g/ha
  Pre-emergent Herbicidal Activity: Echinochloa: 7
Xanthium; 30 g/ha
  Pre-emergent Herbicidal Activity: Xanthium: 0
Xanthium; 60 g/ha
  Pre-emergent Herbicidal Activity: Xanthium: 0
Corn; Table B4, 30 g/ha
  Pre-emergent Herbicidal Activity: Corn: 0
Corn; Table B4, 60 g/ha
  Pre-emergent Herbicidal Activity: Corn: 0
Soya; Table B4, 30 g/ha
  Pre-emergent Herbicidal Activity: Soya: 2
Soya; Table B4, 60 g/ha
  Pre-emergent Herbicidal Activity: Soya: 3

## COCCCc1nc(C(F)(F)F)ccc1C(=O)C1C(=O)C2CCC(C2)C1=O (stereo not shown) [Compound H-14, 3-[6-trifluoromethyl-2-(3-methoxy-propyl)-pyridine-3-carbonyl]-bicyclo[3.2.1]octane-2,4-dione]
Digitaria [4]
  Post-emergence herbicidal action: Digitaria: 9
Stellaria [5]
  Post-emergence herbicidal action: Stellaria: 10
Setaria [6]
  Post-emergence herbicidal action: Setaria: 10
Abutilon [7]
  Post-emergence herbicidal action: Abutilon: 10
Sinapis
  Post-emergence herbicidal action: Sinapis: 10
Panicum [8]
  Post-emergence herbicidal action: Panicum: 10
Chenopodium [9]
  Post-emergence herbicidal action: Chenopodium: 10
Ipomea
  Post-emergence herbicidal action: Ipomea: 10
Setaria [10]; 15 g/ha
  Pre-emergent Herbicidal Activity: Setaria: 9
Setaria [10]; 30 g/ha
  Pre-emergent Herbicidal Activity: Setaria: 10
Brachiaria; Table B3, 15 g/ha
  Pre-emergent Herbicidal Activity: Brachiaria: 7
Brachiaria; Table B3, 30 g/ha
  Pre-emergent Herbicidal Activity: Brachiaria: 8
Digitaria [1]
  Pre-emergence herbicidal action: Digitaria: 10
Amaranthus
  Pre-emergence herbicidal action: Amaranthus: 10
Amaranthus; Table B3, 15 g/ha
  Pre-emergent Herbicidal Activity: Amaranthus: 7
Amaranthus; Table B3, 30 g/ha
  Pre-emergent Herbicidal Activity: Amaranthus: 7
Abutilon [2]
  Pre-emergence herbicidal action: Abutilon: 10
Abutilon [2]; Table B3, 15 g/ha
  Pre-emergent Herbicidal Activity: Abutilon: 9
Abutilon [2]; Table B3, 30 g/ha
  Pre-emergent Herbicidal Activity: Abutilon: 10
Panicum [3]
  Pre-emergence herbicidal action: Panicum: 10
Echinochloa
  Pre-emergence herbicidal action: Echinochloa: 10
Echinochloa; Table B3, 15 g/ha
  Pre-emergent Herbicidal Activity: Echinochloa: 9
Echinochloa; Table B3, 30 g/ha
  Pre-emergent Herbicidal Activity: Echinochloa: 10
Stellaria [11]
  Pre-emergence herbicidal action: Stellaria: 8
Chenopodium [12]
  Pre-emergence herbicidal action: Chenopodium: 10
Corn; Table B3, 15 g/ha
  Pre-emergent Herbicidal Activity: Corn: 0
Corn; Table B3, 30 g/ha
  Pre-emergent Herbicidal Activity: Corn: 0
Soya; Table B3, 15 g/ha
  Pre-emergent Herbicidal Activity: Soya: 1
Soya; Table B3, 30 g/ha
  Pre-emergent Herbicidal Activity: Soya: 3

## CCOCCCc1nc(C(F)(F)F)ccc1C(=O)C1C(=O)C2CCC(C2)C1=O (stereo not shown) [Compound H-15]
Digitaria [4]
  Post-emergence herbicidal action: Digitaria: 8
Stellaria [5]
  Post-emergence herbicidal action: Stellaria: 9
Setaria [6]
  Post-emergence herbicidal action: Setaria: 8
Abutilon [7]
  Post-emergence herbicidal action: Abutilon: 9
Sinapis
  Post-emergence herbicidal action: Sinapis: 9
Panicum [8]
  Post-emergence herbicidal action: Panicum: 9
Chenopodium [9]
  Post-emergence herbicidal action: Chenopodium: 10
Ipomea
  Post-emergence herbicidal action: Ipomea: 8
Digitaria [1]
  Pre-emergence herbicidal action: Digitaria: 9
Amaranthus
  Pre-emergence herbicidal action: Amaranthus: 10
Abutilon [2]
  Pre-emergence herbicidal action: Abutilon: 10
Panicum [3]
  Pre-emergence herbicidal action: Panicum: 10
Echinochloa
  Pre-emergence herbicidal action: Echinochloa: 10
Stellaria [11]
  Pre-emergence herbicidal action: Stellaria: 10
Chenopodium [12]
  Pre-emergence herbicidal action: Chenopodium: 10

## COCCCc1nc(C(F)F)ccc1C(=O)C1C(=O)C2CCCC(C2)C1=O (stereo not shown) [Compound H-21]
Digitaria [4]
  Post-emergence herbicidal action: Digitaria: 9
Stellaria [5]
  Post-emergence herbicidal action: Stellaria: 8
Setaria [6]
  Post-emergence herbicidal action: Setaria: 8
Abutilon [7]
  Post-emergence herbicidal action: Abutilon: 8
Sinapis
  Post-emergence herbicidal action: Sinapis: 9
Panicum [8]
  Post-emergence herbicidal action: Panicum: 9
Chenopodium [9]
  Post-emergence herbicidal action: Chenopodium: 9
Ipomea
  Post-emergence herbicidal action: Ipomea: 8
Digitaria [1]
  Pre-emergence herbicidal action: Digitaria: 10
Amaranthus
  Pre-emergence herbicidal action: Amaranthus: 7
Abutilon [2]
  Pre-emergence herbicidal action: Abutilon: 7
Panicum [3]
  Pre-emergence herbicidal action: Panicum: 10
Echinochloa
  Pre-emergence herbicidal action: Echinochloa: 9
Stellaria [11]
  Pre-emergence herbicidal action: Stellaria: 10
Chenopodium [12]
  Pre-emergence herbicidal action: Chenopodium: 10
